{"source": "paper PMC5677370", "about": "“Structure-based nuclear import mechanism of histones H3 and H4 mediated by Kap123” (eLife, 2017)", "key": {"[1]": {"test_system": "wild-type Kl Kap123", "experiment": "SPR binding of wild-type or mutant H3_1–35-/H4_1–21-NLS peptides to immobilized wild-type Kap123", "design": "species or system Kluyveromyces lactis", "settings": "10 mM HEPES, 150 mM NaCl, 7°C, relative to wild-type; for affinity of mutant H3-NLS toward Kap123: wild-type Kap123 immobilized 7500 RU on CM5, H3_1–35-NLS peptides 0-5 μM", "description": "Figure 5. Surface plasmon resonance analysis of wild-type Kl Kap123 in the presence of wild-type or mutants of H3_1–35-/H4_1–21-NLSs. The biacore diagrams (a) and the normalized bar graph (c) of wild-type Kap123 in the presence of wild-type or mutant H3_1-35-NLS. The wild-type Kap123 was immobilized on a CM5 chip with 7500 RU and the wild-type or mutant H3_1–35-NLS peptides (H3_K14A, H3_K14Q, H3_K23A, H3_K23Q, or H3_K14Q/K23Q) were injected at different concentrations (0, 0.07, 0.15, 0.32, 0.65, 1.25, 2.5, and 5 μM). The biacore diagrams (b) and the bar graph (d) of wild-type Kap123 in the presence of wild-type or mutant H4_1–21-NLS. The wild-type Kap123 was immobilized on a CM5 chip with 7116 RU and the wild-type or mutant H4_1–21-NLS peptides (H4_K16A or H4_K5Q/K12Q) were injected at different concentrations (0, 0.32, 0.62, 1.25, 2.5, 5, and 10 μM). The H4K16Q peptide was used at different concentrations (0, 0.7, 1.5, 3, 6, 12, and 25 uM). See details in Materials and method section. Red-colored sensorgrams represent positive controls of wild-type Kap123, which were injected 2000 nM wild-type Kap123 before and after sample injection (a–b). The relative binding between wild-type Kap123 and mutant peptides was measured at five different concentrations for generating error bars (c–e). (e) The normalized affinity bar graph of H3-/H4-NLS toward wild-type Kap123 was derived from (a) and (b).\nA CM5 chip (GE healthcare) was coated with streptavidin in 10 mM acetate pH 4.5 at a flow rate of 5 μl/min. The biotinylated C-terminal histone H3 peptide (residues 1–35) was synthesized (Anygen, South Korea) and immobilized on the CM5 chip coated with streptavidin with a flow rate of 5 μl/min in the binding buffer (10 mM HEPES, 150 mM NaCl). Various concentrations of the wild-type and mutant Kl Kap123 protein (see figure legends of Figures 3 and 4) were prepared in the binding buffer with 2 mM TCEP and then injected at the flow rate of 30 μl/min in the binding buffer using a T200 instrument (GE Healthcare) at 7°C. After injecting the sample, the chip was regenerated by a regeneration buffer (1 M NaCl and 20 mM NaOH in binding buffer) at a flow rate of 30 μl/min. For measuring the interaction of wild-type Kl Kap123 and mutant histone H3 or H4 peptides, 0.1 μM Kap123 diluted in10mM acetate pH 4.0 was immobilized 7100 RU on the CM5 chip at flow rate of 5 μl/min. Peptides of histone H3 or H4 mutants were injected at a flow rate of 30 μl/min in the binding buffer and the binding was monitored at various concentrations (0, 0.31, 0.62, 1.25, 2.5, 5 and 10 uM) at 7°C. For the H4K16Q peptide, Kap 123 was immobilized with 5100 RU on CM5 chip, and H4K16Q and wild-type H4 peptides (0, 0.7, 1.5, 3, 6, 12 and 25 uM) were injected as analytes at a flow rate of 30 μl/min at 7°C."}, "[2]": {"test_system": "nuclear translocation of the H4-NLS-GFP reporter", "settings": "GFP reporter assay; ref Blackwell et al., 2007; cited from earlier work"}, "[3]": {"test_system": "Kap123-H3-NLS", "experiment": "Competition pull-down: pre-assembled MBP-Kap123-H3-NLS challenged by H4-NLS", "format": "binding", "settings": "amylose affinity pull-down, MBP-tagged Kap123 pre-assembled with H3_1–59-Sumo, challenged by H4_1–48-Sumo (wild-type or mutant) 0x, 1x, 2x, 5x, 10x; 30 mM Tris–HCl pH 8.0, 50 mM NaCl, 1 mM DTT, 0.01% NP-40; 90 mins at 4°C; three independent assays", "description": "Figure 6. Competition assay of H3- and H4-NLSs (wild-type H4 and mutant H4^K5Q/K12Q) toward Kap123 association. Competition of H3_1–59- and H4_1–48-Sumo (a) as well as H3_1–59- and H4_1–48 ^K5Q/K12Q-Sumo (b) toward Kap123 binding was monitored by amylose affinity pull-downs using MBP-tagged Kap123. A fixed amount of the pre-assembled complex of MBP-tagged Kap123 and H4_1–48-Sumo was challenged by an increasing amount of H3_1–59-Sumo. The same competition assay was done by using pre-incubated MBP-tagged Kap123-H3_1–59-Sumo and gradually increasing the amount of H4_1–48-Sumo either with wild-type (a) or mutant (b), K5Q/K12Q) H4 sequence. (c–d) The normalized bar graphs of remaining H3_1–59- and H4_1–48-NLS-Sumo after challenged with increased amounts of H4_1–48- and H3_1–59-NLS-Sumo (0x, 1x, 2x, 5x, and 10x) toward Kap123, respectively. Either H4_1–48-NLS-Sumo (c) or H4_1–48^K5Q/K12Q-NLS-Sumo (d) was used for the H3_1–59-NLS-Sumo competition. Three independent competition assays were carried out and the band intensity was measured to calculate the error bar. Figure 6—figure supplement 1. […] (a) Competition of H3_1–59-Sumo using either H4_1–48-Sumo or H4_1–48 ^K5Q/K8Q/K12Q-Sumo toward Kap123 binding was monitored by amylose affinity pull-downs using MBP-tagged Kap123. […] Three independent competition assays were carried out and the band intensity was measured to calculate the error bar. […]"}, "[4]": {"molecular_target": "Kapβ2", "settings": "ref Soniat et al., 2016; read-out: KD of Kapβ2-H3_1–47-NLS interaction; cited from earlier work", "text": "Accumulated evidence illustrates that cytosolic histones H3 and H4 are acetylated prior to nuclear import and believed to play a role in the translocation process mediated by Kap123 ([Sobel et al., 1994]; [Sobel et al., 1995]; [Loyola et al., 2006]; [Jasencakova et al., 2010]; [Ma et al., 1998]; [Blackwell et al., 2007]; [Kuo et al., 1996])."}}, "data": [{"substance": "H4-NLS^K16A", "values": [{"measurement": "affinity of mutant H4-NLS toward Kap123", "setting": "[1]; wild-type Kap123 immobilized 7116 RU on CM5, H4_1–21-NLS peptides 0-10 μM, five concentrations", "value": "reduced the affinity toward Kap123 although the effect was mild"}]}, {"substance": "H4-NLS^K5Q/K8Q/K12Q: tri-acetylation mimic mutant of H4-NLS (H4_1–48-Sumo in competition assay)", "values": [{"measurement": "nuclear translocation of H4-NLS-GFP reporter, acetylation mimic", "setting": "[2]", "value": "dramatically reduced the nuclear translocation"}, {"measurement": "competition with H3-NLS for Kap123", "setting": "[3]", "value": "no longer competed with H3-NLS in Kap123 interaction"}]}, {"substance": "H4-NLS^K16Q", "values": [{"measurement": "affinity of H4 K16Q toward Kap123", "setting": "[1]; Kap123 immobilized 5100 RU on CM5, H4K16Q 0-25 uM", "value": "reduced the affinity toward Kap123 although the effect was mild"}]}, {"substance": "H3_1–47-NLS: histone H3 residues 1–47 NLS bound to Kapβ2", "values": [{"measurement": "Kd", "setting": "[4]", "value": 77.1, "unit": "nM"}]}, {"substance": "H3 K23Q", "values": [{"measurement": "affinity of mutant H3-NLS toward Kap123", "setting": "[1]; five concentrations", "value": "decreased the affinity toward Kap123"}]}, {"substance": "H4_1–48^K5Q/K12Q-Sumo: C-terminal Sumo-tagged histone H4_1–48, K5Q/K12Q", "values": [{"measurement": "competition with H3-NLS for Kap123", "setting": "[3]", "value": "loss of competition"}]}, {"substance": "H3 K14A", "values": [{"measurement": "affinity of mutant H3-NLS toward Kap123", "setting": "[1]; five concentrations", "value": "decreased the affinity toward Kap123"}]}, {"substance": "H3 K14Q", "values": [{"measurement": "affinity of mutant H3-NLS toward Kap123", "setting": "[1]; five concentrations", "value": "decreased the affinity toward Kap123"}]}, {"substance": "H3 K23A", "values": [{"measurement": "affinity of mutant H3-NLS toward Kap123", "setting": "[1]; five concentrations", "value": "decreased the affinity toward Kap123"}]}]}
